These results are taken from patent publication US20110184188A1, “Insecticidal Benzenedicarboxamide Derivative” (priority 2008, published 2011).

The nature of one data set: logP(acid) by reverse phase (C18) chromatography at pH 2.3. The format is physicochemical. The conditions noted are these: reverse phase (C18) chromatography at pH 2.3.
Take `CSC[C@H](C)NC(=O)c1c(Cl)cc(Cl)cc1C(=O)Nc1ccc(Cn2nc(C(F)(F)F)cc2C(F)(F)F)nc1C` [10-1]: the “logP (acid)” value is listed as “logP (acid) 4.18”. Regarding `Cc1nc(Cn2nc(C(F)(F)F)cc2C(F)(F)F)ccc1NC(=O)c1cc(Cl)cc(Cl)c1C(=O)N[C@@H](C)C[S+](C)[O-]` (some centres unmarked) [10-2], the “logP (acid)” value is “logP (acid) 2.83”. With `CSC[C@H](C)NC(=O)c1c(Cl)cc(Cl)cc1C(=O)Nc1ccc(Cn2nc(C(F)(F)C(F)(F)F)nc2C(F)(F)F)cc1C` [10-10], the “logP (acid)” value is listed as “logP (acid) 4.64”. Still for that read-out and setting: the entry for `Cc1cc(Cn2nc(C(F)(F)C(F)(F)F)nc2C(F)(F)F)ccc1NC(=O)c1cc(Cl)cc(Cl)c1C(=O)N[C@@H](C)C[S+](C)[O-]` (some centres unmarked) [10-11] is “logP (acid) 3.28”; for `Cc1cc(Cn2nc(C(F)(F)C(F)(F)F)nc2C(F)(F)F)ccc1NC(=O)c1cc(Cl)cc(Cl)c1C(=O)N[C@@H](C)CS(C)(=O)=O` [10-12] it is “logP (acid) 3.61”.

Turning to `Cc1cc(Cn2nc(C(F)(F)C(F)(F)F)nc2C(F)(F)F)ccc1NC(=O)c1cc(F)cc(Cl)c1C(=O)N[C@@H](C)C[S+](C)[O-]` (some centres unmarked) [10-14], the “logP (acid)” value is given as “logP (acid) 3.00”. Same read-out and setting: next, `Cc1cc(Cn2nc(C(F)(F)C(F)(F)F)nc2C(F)(F)F)ccc1NC(=O)c1cc(F)cc(Cl)c1C(=O)N[C@@H](C)CS(C)(=O)=O` [10-15]: “logP (acid) 3.37”; `CSC[C@H](C)NC(=O)c1c(I)ccc(F)c1C(=O)Nc1ccc(Cn2nc(C(F)(F)F)cc2C(F)(F)F)nc1C` [11-1]: “logP (acid) 3.72”; `CSCC(C)NC(=O)c1c(Cl)ccc(Cl)c1C(=O)Nc1ccc(Cn2nc(C(F)(F)F)cc2C(F)(F)F)nc1C` (centres unmarked) [11-4]: “logP (acid) 4.14”. In the case of `Cc1nc(Cn2nc(C(F)(F)F)cc2C(F)(F)F)ccc1NC(=O)c1c(Cl)ccc(Cl)c1C(=O)N[C@@H](C)C[S+](C)[O-]` (some centres unmarked) [11-5], the “logP (acid)” value is “logP (acid) 2.65”.

In the case of `Cc1nc(Cn2nc(C(F)(F)F)cc2C(F)(F)F)ccc1NC(=O)c1c(Cl)ccc(Cl)c1C(=O)N[C@@H](C)CS(C)(=O)=O` [11-6], the “logP (acid)” value is given as “logP (acid) 3.05”. As to `CSC[C@H](C)NC(=O)c1c(Cl)ccc(Br)c1C(=O)Nc1ccc(Cn2nc(C(F)(F)F)cc2C(F)(F)F)nc1C` [11-13], the “logP (acid)” value is given as “logP (acid) 3.89”. Consider `Cc1nc(Cn2nc(C(F)(F)F)cc2C(F)(F)F)ccc1NC(=O)c1c(Br)ccc(Cl)c1C(=O)N[C@@H](C)C[S+](C)[O-]` (some centres unmarked) [11-14], for which the “logP (acid)” value is “logP (acid) 2.68”. On to `Cc1nc(Cn2nc(C(F)(F)F)cc2C(F)(F)F)ccc1NC(=O)c1c(Br)ccc(Cl)c1C(=O)N[C@@H](C)CS(C)(=O)=O` [11-15], for which the “logP (acid)” value is reported as “logP (acid) 3.05”. Same read-out and setting: the entry for `COc1ccc(Br)c(C(=O)Nc2ccc(Cn3nc(C(F)(F)F)cc3C(F)(F)F)nc2C)c1C(=O)N[C@@H](C)CSC` [11-16] is “logP (acid) 3.63”; for `COc1ccc(Br)c(C(=O)Nc2ccc(Cn3nc(C(F)(F)F)cc3C(F)(F)F)nc2C)c1C(=O)N[C@@H](C)C[S+](C)[O-]` (some centres unmarked) [11-17] it is “logP (acid) 2.6”. The same measure, in the same setting: next, `COc1ccc(Br)c(C(=O)Nc2ccc(Cn3nc(C(F)(F)C(F)(F)F)cc3C(F)(F)F)nc2C)c1C(=O)N[C@@H](C)CSC` [11-19]: “logP (acid) 4.02”; `COc1ccc(Br)c(C(=O)Nc2ccc(Cn3nc(C(F)(F)C(F)(F)F)cc3C(F)(F)F)nc2C)c1C(=O)N[C@@H](C)C[S+](C)[O-]` (some centres unmarked) [11-20]: “logP (acid) 2.90”.

As to `CSC[C@H](C)NC(=O)c1c(Cl)ccc(Cl)c1C(=O)Nc1ccc(Cn2nc(C(F)(F)F)cc2C(F)(F)F)cc1C` [11-21], the “logP (acid)” value is listed as “logP (acid) 3.88”. With `Cc1cc(Cn2nc(C(F)(F)F)cc2C(F)(F)F)ccc1NC(=O)c1c(Cl)ccc(Cl)c1C(=O)N[C@@H](C)CS(C)(=O)=O` [11-23], the “logP (acid)” value is listed as “logP (acid) 3.40”.

For `CSC[C@H](C)NC(=O)c1c(Cl)ccc(Cl)c1C(=O)Nc1ccc(Cn2nc(C(F)(F)F)nc2C(F)(F)F)cc1C` [11-26], the “logP (acid)” value was “logP (acid) 4.25”. As to `CSC[C@H](C)NC(=O)c1c(Cl)ccc(Cl)c1C(=O)Nc1ccc(Cn2nc(C(F)(F)C(F)(F)F)nc2C(F)(F)F)cc1C` [11-27], the “logP (acid)” value is reported as “logP (acid) 4.51”.

As for `Cc1cc(Cn2nc(C(F)(F)C(F)(F)F)nc2C(F)(F)F)ccc1NC(=O)c1c(Cl)ccc(Cl)c1C(=O)N[C@@H](C)CS(C)(=O)=O` [11-29], the “logP (acid)” value is “logP (acid) 3.50”.

As to `CSC[C@H](C)NC(=O)c1c(Cl)ccc(Br)c1C(=O)Nc1ccc(Cn2nc(C(F)(F)C(F)(F)F)nc2C(F)(F)F)cc1C` [11-30], the “logP (acid)” value was “logP (acid) 4.28”. Consider `Cc1cc(Cn2nc(C(F)(F)C(F)(F)F)nc2C(F)(F)F)ccc1NC(=O)c1c(Br)ccc(Cl)c1C(=O)N[C@@H](C)CS(C)(=O)=O` [11-32], for which the “logP (acid)” value is on record as “logP (acid) 3.47”. For `COc1ccc(Br)c(C(=O)Nc2ccc(Cn3nc(C(F)(F)C(F)(F)F)nc3C(F)(F)F)cc2C)c1C(=O)N[C@@H](C)CSC` [11-38], the “logP (acid)” value was “logP (acid) 4.14”.

As to `CNC(=O)c1cc(Cl)cc(Cl)c1C(=O)Nc1ccc(Cn2nc(C(F)(F)F)cc2C(F)(F)F)cc1C` [12-1], the “logP (acid)” value is reported as “logP (acid) 3.69”. In the case of `CNC(=O)c1cc(Cl)cc(Cl)c1C(=O)Nc1ccc(Cn2nc(C(F)(F)F)nc2C(F)(F)F)cc1C` [12-4], the “logP (acid)” value is reported as “logP (acid) 3.39”.

`CSC[C@H](C)NC(=O)c1c(Cl)cccc1C(=O)Nc1ccc(Cn2nc(C(F)F)c(Cl)c2C(F)F)nc1C` [13-27]: the “logP (acid)” value came to 3.21. `CSC[C@H](C)NC(=O)c1c(Cl)cccc1C(=O)Nc1ccc(Cn2nc(C(F)F)c(Br)c2C(F)F)nc1C` [13-28]: the “logP (acid)” value was determined as 3.20. Regarding `CSC[C@H](C)NC(=O)c1c(Cl)cccc1C(=O)Nc1ccc(Cn2cc(C(F)(F)C(F)(F)F)c(C(F)(F)C(F)(F)F)n2)nc1C` [13-50], the “logP (acid)” value came to 4.27.

As for `Cc1nc(Cn2nc(C(F)(F)C(F)(F)F)cc2C(F)(F)F)ccc1NC(=O)c1cccc(Cl)c1C(=O)N[C@@H](C)C[S+](C)[O-]` (some centres unmarked) [13-70], the “logP (acid)” value is 2.86. For `Cc1nc(Cn2nc(C(F)F)c(Cl)c2C(F)F)ccc1NC(=O)c1cccc(Cl)c1C(=O)N[C@@H](C)CS(C)(=O)=O` [13-76], the “logP (acid)” value was 2.48. For `Cc1nc(Cn2cc(C(F)(F)C(F)(F)F)c(C(F)(F)C(F)(F)F)n2)ccc1NC(=O)c1cccc(Cl)c1C(=O)N[C@@H](C)CS(C)(=O)=O` [13-110], the “logP (acid)” value was “logP (acid) 3.46”.

Still in this data set, the particulars now being: reverse phase (C18) chromatography at pH2.3, 0.1% phosphoric acid aqueous solution / acetonitrile gradient.
Consider `CSC[C@H](C)NC(=O)c1c(Cl)cccc1C(=O)Nc1cc(F)c(Cn2nc(C(F)(F)F)cc2C(F)(F)F)nc1C` [7-150], for which the “logP (acid)” value is on record as “logP (acid) 4.13”.

The data set is the same for the next values; noted with them: reverse phase (C18) chromatography at pH2.3, 0.1% phosphoric acid aqueous solution / acetonitrile, linear gradient 10-95% acetonitrile.
Consider `CSC[C@H](C)NC(=O)c1c(Br)cccc1C(=O)Nc1cc(F)c(Cn2nc(C(F)(F)F)cc2C(F)(F)F)cc1C` [7-10], for which the “logP (acid)” value is reported as “logP (acid) 4.37”. As for `CSC[C@H](C)NC(=O)c1c(Br)cccc1C(=O)Nc1cc(F)c(Cn2nc(C(F)(F)F)nc2C(F)(F)F)cc1C` [7-13], the “logP (acid)” value is reported as “logP (acid) 4.07”. As for `Cc1cc(Cn2nc(C(F)(F)F)nc2C(F)(F)F)c(F)cc1NC(=O)c1cccc(Br)c1C(=O)N[C@@H](C)C[S+](C)[O-]` (some centres unmarked) [7-14], the “logP (acid)” value is “logP (acid) 2.68”. On the same count and under the same terms, next, `Cc1cc(Cn2nc(C(F)(F)F)nc2C(F)(F)F)c(F)cc1NC(=O)c1cccc(Br)c1C(=O)N[C@@H](C)CS(C)(=O)=O` [7-15]: “logP (acid) 3.08”; `CSC[C@H](C)NC(=O)c1c(SC)cccc1C(=O)Nc1cc(F)c(Cn2nc(C(F)(F)F)nc2C(F)(F)F)cc1C` [7-23]: “logP (acid) 3.96”.

Staying with this data set, now noted: reverse phase (C18) chromatography, pH2.3, 0.1% phosphoric acid aqueous solution / acetonitrile, linear gradient 10-95% acetonitrile.
As to `Cc1nc(Cn2nc(C(F)(F)F)cc2C(F)(F)F)ccc1NC(=O)c1ccc(F)c(Br)c1C(=O)N[C@@H](C)C[S+](C)[O-]` (some centres unmarked) [9-11], the “logP (acid)” value is “logP (acid) 2.51”.

Turning to `CSC[C@H](C)NC(=O)c1c(C(=O)Nc2ccc(Cn3nc(C(F)(F)C(F)(F)F)nc3C(F)(F)F)cc2C)ccc(F)c1Br` [9-12], the “logP (acid)” value is “logP (acid) 4.29”. Regarding `Cc1cc(Cn2nc(C(F)(F)C(F)(F)F)nc2C(F)(F)F)ccc1NC(=O)c1ccc(F)c(Br)c1C(=O)N[C@@H](C)C[S+](C)[O-]` (some centres unmarked) [9-13], the “logP (acid)” value is recorded as “logP (acid) 2.96”.

With `CSC[C@H](C)NC(=O)c1c(C(=O)Nc2ccc(Cn3nc(C(F)(F)F)cc3C(F)(F)F)cc2C)ccc(C(F)(F)F)c1Cl` [9-14], the “logP (acid)” value was “logP (acid) 4.62”. Still for that read-out and setting: the entry for `CSC[C@H](C)NC(=O)c1c(C(=O)Nc2ccc(Cn3nc(C(F)(F)C(F)(F)F)nc3C(F)(F)F)cc2C)ccc([N+](=O)[O-])c1Cl` [9-15] is “logP (acid) 4.27”; for `Cc1cc(Cn2nc(C(F)(F)F)cc2C(F)(F)F)ccc1NC(=O)c1ccc(C(F)(F)F)c(Cl)c1C(=O)N[C@@H](C)CS(C)(=O)=O` [9-17] it is “logP (acid) 3.22”. Consider `CSC[C@H](C)NC(=O)c1c(C(=O)Nc2ccc(Cn3nc(C(F)(F)F)nc3C(F)(F)F)cc2C)ccc(C(F)(F)F)c1Cl` [9-18], for which the “logP (acid)” value is recorded as “logP (acid) 4.30”. As to `Cc1cc(Cn2nc(C(F)(F)F)nc2C(F)(F)F)ccc1NC(=O)c1ccc(C(F)(F)F)c(Cl)c1C(=O)N[C@@H](C)C[S+](C)[O-]` (some centres unmarked) [9-19], the “logP (acid)” value is given as “logP (acid) 2.98”. Same read-out and setting: the entry for `Cc1nc(Cn2nc(C(F)(F)F)cc2C(F)(F)F)ccc1NC(=O)c1ccc(F)c(Br)c1C(=O)N[C@@H](C)CS(C)(=O)=O` [9-21] is “logP (acid) 3.27”; for `Cc1cc(Cn2nc(C(F)(F)C(F)(F)F)nc2C(F)(F)F)ccc1NC(=O)c1ccc(F)c(Br)c1C(=O)N[C@@H](C)CS(C)(=O)=O` [9-22] it is “logP (acid) 3.36”; for `CSC[C@H](C)NC(=O)c1c(C(=O)Nc2ccc(Cn3nc(C(F)(F)C(F)(F)F)nc3C(F)(F)F)cc2C)ccc(C(F)(F)F)c1Cl` [9-23] it is “logP (acid) 4.63”. Still for that read-out and setting: the entry for `Cc1cc(Cn2nc(C(F)(F)C(F)(F)F)nc2C(F)(F)F)ccc1NC(=O)c1ccc(C(F)(F)F)c(Cl)c1C(=O)N[C@@H](C)CS(C)(=O)=O` [9-25] is “logP (acid) 3.70”; for `CSC[C@H](C)NC(=O)c1c(C(=O)Nc2ccc(Cn3nc(C(F)(F)F)cc3C(F)(F)F)nc2C)ccc(C(F)(F)F)c1Cl` [9-26] it is “logP (acid) 4.25”.
